# Laboratory results as given in US12414983B2, “CD200AR ligands for cancer immunotherapy” (REGENTS OF THE UNIVERSITY OF MINNESOTA, priority 2019, dated 2025).
# “Also recorded” adds a separate entry of the source.
# What was measured:
# human CD14 cells = experiment: CD200R1 and PD-1 on human CD14 cells pulsed with human CD200AR-L, flow cytometry; format: cell-based; settings: mean fluorescent intensity
# Protocol: FIGS. 7A-7G. CD200AR-L pulses down-regulate inhibitory CD200R1. Murine CD11b cells were pulsed with mCD200AR-L, RNA was extracted and analyzed for CD200R1 or PD-1 expression (FIGS. 7A&B). To further these studies, CD11b cells were stimulated with OVA+/−CD200AR-L, cells were washed and purified T cells were added. Following 24 hr incubation, T-cells were isolated and analyzed for CD200R1 or PD-1 expression (FIGS. 7C&D). To see if these experiments translated to humans, CD14 cells were pulsed with our human CD200AR-L. Following 24 hr incubation, cells were stained with anti-CD200R1 analyzed by flow cytometry (FIG. 7E), mean fluorescent intensity was analyzed for CD200R1 (FIG. 7F) and PD-1 (FIG. 7G) expression. […] Error bars represent standard deviation (n=3/group, *P<0.05, **P<0.005, ***P<0.0005, ****P<0.00005 by t-test.
# FIGS. 13A-13F. Figure. […] Murine CD11b cells were pulsed CD200AR-L and analyzed for transcription levels of (FIG. 13A) CD200R1 and (FIG. 13B) PD-1; Human CD14 cells were pulsed with human CD200AR-L, following 48 hr incubation, cells were analyzed by flow cytometry for (FIG. 13C) CD200R1 and (FIG. 13D) PD-1 expression; murine CD11b cells from wildtype mice were pulsed with OVA+/− the CD200AR-L. Cells were washed, purified CD3 cells were added to CD11b cells for 24 hrs. CD3 cells were purified and analyzed for transcription levels of (FIG. 13E) CD200R1 and (FIG. 13F) PD-1. […]
# Human CD14+ cells = experiment: Cytokine measurements in CD14+ cells pulsed with CD200AR-L peptide; format: cell-based; settings: selection among 61 alanine-substituted peptides
# Protocol: Cytokine measurements. Human CD14^+ cells (5×10^5) were isolated from peripheral blood mononuclear cells (PBMCs) using anti-CD14 beads (BD Biosciences, San Jose, CA), typically yielding ≥70% recovery and ≥90% purity. Cells were pulsed with 2 μM CD200AR-L peptide and incubated for 48 h, after which the supernatants were analyzed by bead array for cytokine production (BD Biosciences, San Jose, CA).
# CD14+ cells [1] = experiment: RNAseq / NanoString gene expression analysis of pulsed CD14+ cells; format: cell-based, human
# Source text: Nanostring gene expression analysis: Total RNA from CD14^+ cells was sent to New Zealand Genomics Limited (Dunedin, New Zealand) to measure the expression of genes that are differentially expressed during inflammation (nCounter GX, NanoString Technologies, Seattle, WA, USA). Briefly, total RNA was extracted from CD14^+ cells (MagJET RNA kit, Thermo Fisher Scientific, Waltham, MA) using the protocol adapted for tissue (KingFisher Duo machine, Thermo Fisher Scientific, Waltham, MA). RNA samples were then quantified (Qubit® 2.0 fluorometer, Thermo Fisher Scientific) and subjected to RNA integrity analysis (2100 Bioanalyzer, Agilent Technologies, Santa Clara, CA). Probes for the genes encoding CD44 (NM_001001392.1); NANOG (NM_024865.2); OCT4 (NM_002701.4); STAT3 (NM_139276.2); and the housekeeping genes glucuronidase beta (NM_000181.1), clathrin heavy chain (NM 4859.2), and hypoxanthine phosphoribosyltransferase 1 (NM_000194.1) were designed and manufactured by NanoString Technologies.
# Expression data obtained with NanoString GX were analyzed by using nSolver Analysis Software 3.0 (nanostring.com/products/nSolver) with default settings, and normalized to housekeeping genes. nSolver was used to perform cluster analysis and to generate heat maps by using Java Treeview Version 1.1.6r4. Pathway analysis was performed by using the PathCards Pathway Unification Database (pathcards.genecards.org). Student's t-tests were used to determine significant differences (p<0.05).
# CD14+ cells [2] = experiment: Dendritic cell maturation: phenotyping for CD80, CD86, HLA-DR; format: cell-based, human; settings: peptide alone compared with GM-CSF+IL4, p<0.0001
# Protocol: FIGS. 4A-4D. Targeting CD200 activation receptors enhances dendritic cell maturation. (FIGS. 4A, 4B) CD14 purified cells were pulsed with (FIG. 4A) GM-CSF+IL4 or equal molar ratios of peptides P1A8, P2A0, or P4A10 or (FIG. 4B) GM-CSF+IL4 plus equal molar ratios of peptides P1A8, P2A0, or P4A10 and incubated for 48 h. Cells were harvested and phenotyped for CD80, CD86, and HLA-DR. (FIG. 4C) Immature dendritic cells from donors with or without CMV were pulsed with the CMV antigen pp65+/−equal molar ratios of peptides P1A8, P2A0, or P4A10. Cells were washed, and autologous T-cells were added back and incubated for a further 48 h. Supernatants were analyzed for IFNγ production. (FIG. 4D) Immature dendritic cells were pulsed with the CMV antigen pp65+/−P4A10. After the cells were washed, autologous T-cells were added back and incubated for a further 48 h. Supernatants were analyzed for IFNγ, IL-6, TNFα and RANTES content. Error bars represent standard deviation (n=3 healthy donors/group, *P<0.05, **P<0.005, ***P<0.0005 by t-test). The data represent three separate healthy donors. Black bars represent CMV-negative donors.
# Targeting CD200 activation receptors enhances dendritic cell maturation. TNF-regulated cytokines (Table 1) have been implicated in dendritic cell maturation. […] To substantiate this, CD14^+ cells were isolated from healthy human donors and pulsed with GM-CSF+IL4, P1A8, P2A0, or P4A10 27. Cells pulsed with P1A8, P2A0, and P4A10 expressed higher levels of the co-stimulatory molecules CD80, CD86, and HLA-DR than cells treated with GM-CSF+IL4 (p<0.0001; FIG. 4a). Moreover, we observed synergistic upregulation of CD80/86 and HLA-DR when CD14^+ cells were incubated with GM-CSF+IL4 and each of the peptides (p<0.0001) (FIG. 4b).
# Murine CD11b cells = experiment: PMA-activated murine CD11b cells treated with PD-L1 +/- murine CD200AR-L, cytokines; format: cell-based; settings: PD-L1 with or without murine CD200AR-L, 48 hr
# Source text: FIGS. 8A-8C. CD200AR-L pulses overpowers the suppressive PD-L1.
# Murine splenocytes = experiment: Splenocytes activated with PMA +/- PD-L1 or PD-L1+CD200AR-L, cytokines; format: cell-based; settings: 48 hr
# Protocol: FIGS. 11A-11C. […] Murine splenocytes were activated with PMA, +/−PD-L1 or PD-L1+mCD200AR-L. Following 48 hr incubation, supernatants were analyzed for (FIG. 11A) TNFα (FIG. 11B) IL-4 or (FIG. 11C) IL-5. Error bars are representative of n=3; *P<0.005.
# The CD200 and PD-1 pathways crosstalk, allowing CD200AR-L to override the suppressive PD-L1. […] To evaluate the effect of CD200AR-L on PD-1/PD-L1, splenocytes were activated with PMA+/−PD-L1 or PD-L1+CD200AR-L, and supernatants were analyzed for TNFα, IL-4 and IL-5 production (FIG. 11A-11C). As observed with the CD200 protein (FIG. 11B), PD-L1 induced an immune suppressed environment as measured by cytokine production; however, PD-L1 reduced the production of TNFα, IL-4 and IL-5 induced by PMA, which was restored by the addition of CD200AR-L. These experiments led to the hypothesis that the CD200 and PD-1 pathways are connected.
# Splenocytes = Splenocytes pulsed with CD200 or PD-L1 +/- mCD200AR-L, flow cytometry for CTLA4 and PD-L1; format: cell-based
# Protocol: FIGS. 14A-14C. […] Splenocytes were pulsed with CD200, PD-L1+/−mCD200AR-L. Cells were analyzed by flow cytometry for the (FIG. 14A) CD4^+CTLA4^+, (FIG. 14B) CD8^+CTLA4^+or (FIG. 14C) CD11b^+PD-L1^+ populations. Error bars are representative of n=2 *P<0.005, **P<0.0001.
# We propose that soluble CD200 and PD-L1 inhibit T cell activation through multiple checkpoints (FIG. 10). Therefore, the effect of multiple suppressive molecules (CD200 and PD-L1) on T cell inhibition was investigated. […] In addition, following PD-L1 treatment, an upregulation of PD-L1 on CD11b and an upregulation of CTLA4 was observed on T cells. Being CTLA4 and PD-L1 propagate separate inhibitory signals, it was hypothesized that PD-L1 inhibits T cell activation through 1) direct CD200 and PD-L1 on T cells and 2) direct PD-L1 (on APCs)/PD-I (on […]) producing cytokines upregulating CTLA4, which would explain the enhanced responses seen in combination α-PD-1 and α-CTLA4 treatments. However, neither of them inhibit CD200 effect on T cells.
# We next looked at the effects of CD200AR-L on T cell inhibition. […] Being CTLA4 and PD-L1 propagate separate inhibitory signals, we hypothesize that PD-L1 inhibits T cell activation through two separate mechanisms, 1) through direct PD-L1 (on APCs)/PD-I (on T cells) interactions and through cytokine production following PD-L1 binding to the PD-1 on CD11b cell, which would explain the enhanced responses seen in combination α-PD-1 and α-CTLA4 treatments.
# [3] = tested on: spontaneously occurring glioblastoma; experiment: Canine study: tumor resection plus canine CD200AR-L and autologous tumor lysate vaccination; format: in vivo, dog; settings: canine glioma model
# Protocol: Canine study. Pet dogs with a solitary intra-axial mass found by magnetic resonance imaging (MRI) were recruited into a pilot study to assess the effect of a canine-specific peptide. The MRIs were performed to find the causes of generalized seizure activity or behavioral changes, and anti-epileptic drug therapy and corticosteroids were prescribed to control seizures and minimize cerebral edema, respectively. Additional inclusion criteria were 1) tumor suitable for surgical resection, 2) informed consent provided by the dog's owner, 3) normal mentation status at the time of surgery, and 4) no previous definitive therapy for the suspected glioma.
# All dogs underwent surgical resection of the intra-axial mass for maximal tumor debulking. The removed tumors were immediately processed to generate autologous tumor lysates. The lysates were prepared by culturing single-cell suspensions from minced fresh tumor samples at 37° C. in 5% […]. […] An immediate postoperative MRI was performed to assess the extent of resection and to quantify any residual tumor volume. Tumor volume was measured using the planimetry method, which outlines the tumor perimeter on each MR slice; Osirix software was used to calculate the area, and then the areas were summed and multiplied by slice thickness plus gap width. After recovery from anesthesia, all dogs were monitored in the intensive care unit for at least 24 hours. […]
# murine glioma model = experiment: Murine glioma model survival; format: in vivo
# [4] = splenocytes pulsed with CD200 or PD-L1
substance,measurement,setting,value
IVTWQKKAAVSPENM (Ac-IVTWQKKAAVSPENM-NH2; listed as Homo sapiens) [P1A8],PD-1 expression on human CD14 cells,human CD14 cells,down regulated
same,secretion of inflammatory cytokines from CD14+ cells,Human CD14+ cells,maximally stimulated
same,mRNA expression of TNF-regulated cytokines,"CD14+ cells [1]; NanoString platform, FIG. 3b",most potently and consistently induced
same,mRNA expression of cytokines released in response to TNF signaling,"CD14+ cells [1]; RNAseq, CD14+ cells",notable increase
same,"levels of co-stimulatory molecules CD80, CD86, and HLA-DR",CD14+ cells [2],higher levels
"PD-L1: programmed cell death ligand 1, suppressive protein used to pulse cells","activation of CD11b cells (TNFalpha, IL4, IL5 in supernatant)",Murine CD11b cells,suppressed the activation
same,"production of TNFα, IL-4 and IL-5",Murine splenocytes,reduced
same,CTLA4 on CD4 cells,Splenocytes; [4],upregulated
same,CTLA4 on CD8 cells,Splenocytes; [4],upregulated
same,PD-L1 on CD11b cells,Splenocytes; [4],upregulation; also recorded: upregulated
same,CTLA4 on T cells,"Splenocytes; total splenocytes, following PD-L1 treatment",upregulation
CLFNTFGSGAISGTA (Ac-CLFNTFGSGAISGTA-NH2; listed as Canis lupus) [canine P4A10],survival benefit,[3],significant survival benefit
VTWQKKKAVSPANM (Ac-VTWQKKKAVSPANM-NH2; listed as Mus musculus) [murine P1A12],survival benefit,murine glioma model,significant survival benefit
